The values that follow come from patent US20130165483A1, “HETEROARYLS AND USES THEREOF” (MILLENNIUM PHARMACEUTICALS, INC., priority 2011, published 2013).

This assay deals with T1, VPS34 (Homo sapiens, UniProt Q8NEB9).
T1 construct: GST (N); host or cells: SF9 insect cells (baculovirus)
In words: Human VPS34 enzyme assay (Adapta TR-FRET). Particulars: for inhibition at 1.11 µM: 1 h, at a 1.11 μM concentration, read-out: VPS34 Percent Inhibition; for IC50: VPS34 enzyme. In kind it is biochemical. The procedure: VPS34 (accession number GB:BC033004) was cloned into pDEST20-Thombin as N-terminal GST tagged fusion proteins using the Gateway system (Invitrogen, catalog#11804-013). The sequences were verified before recombinant protein expression using the Baculovirus Expression System with Gateway® Technology.
For expression VPS34 was infected at 1MOI in SF9 cells and harvested 72 hours post infection.
For purification, VPS34 is purified by Glutathione Sepharose 4 Fast Flow (GE Healthcare #17-5132-03) followed by HiTrap Q (GE Healthcare #17-1153-01).
Human VPS34 enzyme assay method
100mL compounds in DMSO are added to wells of a 384 well microtitre plate (Greiner 780076). At room temperature: 5ul VPS34 reaction buffer (Invitrogen Assay Buffer Q (diluted 1 in 5 with nanopure water) plus 2 mM DTT and 2 mM MnCl2) containing ATP (20 uM, Promega) and 200 uM PI—PS substrate (Invitrogen PV5122) is added followed immediately by 5ul VPS34 reaction buffer (as above) containing VPS34 (5 nM, Millennium Protein Sciences Group) and the mixture is incubated with shaking at room temperature for 1 hour. Then 5ul VPS34 stop-detect mix (as per Invitrogen Adapta Assay kit (PV5009) instructions (contains kinase quench buffer, TR-FRET buffer, Adapta Eu anti-ADP antibody and Alexa Fluor 647 ADP tracer)) is added to quench the reaction. The plates are then incubated for 30 minutes at room temperature with shaking and then read on a BMG PheraStar Plus reader.
For the assay methods described above, test compound percent inhibition, at various concentrations, is calculated relative to control (DMSO and EDTA) treated samples. Compound concentration versus percent inhibition curves are fitted to generate IC50 values. One skilled in the art will appreciate that the values generated either as percentage inhibition at a single concentration or IC50 values are subject to experimental variation.
A general note: TR-FRET usually uses a lanthanide donor and a delayed reading to cut background.

T1 sequence (Q8NEB9 whole entry): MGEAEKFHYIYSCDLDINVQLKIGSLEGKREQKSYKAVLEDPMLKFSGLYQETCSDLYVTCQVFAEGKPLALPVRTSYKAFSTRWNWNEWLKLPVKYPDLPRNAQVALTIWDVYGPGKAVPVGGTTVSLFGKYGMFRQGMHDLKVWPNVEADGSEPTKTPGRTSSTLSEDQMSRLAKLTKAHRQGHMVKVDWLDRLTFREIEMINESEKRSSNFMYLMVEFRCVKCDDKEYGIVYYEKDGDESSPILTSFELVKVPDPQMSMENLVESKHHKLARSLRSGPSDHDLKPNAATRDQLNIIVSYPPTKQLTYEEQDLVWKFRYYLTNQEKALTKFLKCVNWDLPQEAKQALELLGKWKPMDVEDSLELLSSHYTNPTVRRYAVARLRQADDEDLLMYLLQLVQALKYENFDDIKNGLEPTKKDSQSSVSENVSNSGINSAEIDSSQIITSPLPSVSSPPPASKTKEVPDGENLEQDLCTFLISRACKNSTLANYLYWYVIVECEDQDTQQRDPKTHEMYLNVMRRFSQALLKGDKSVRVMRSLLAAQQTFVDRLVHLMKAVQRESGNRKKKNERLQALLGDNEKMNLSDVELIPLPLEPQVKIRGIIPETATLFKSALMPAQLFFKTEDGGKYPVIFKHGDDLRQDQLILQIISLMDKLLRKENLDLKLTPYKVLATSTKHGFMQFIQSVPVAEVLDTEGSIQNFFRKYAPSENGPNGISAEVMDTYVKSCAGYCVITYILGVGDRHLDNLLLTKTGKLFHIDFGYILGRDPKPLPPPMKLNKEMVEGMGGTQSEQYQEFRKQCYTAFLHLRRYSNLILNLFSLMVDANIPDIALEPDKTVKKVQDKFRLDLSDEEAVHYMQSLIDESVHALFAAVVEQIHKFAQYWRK

A word on the inhibition: it is the drop in the measured response relative to a control, in per cent. In general, IC50 refers to the concentration needed to halve the response being measured. For `CC(=O)Nc1cc(-c2cc(-c3nnc[nH]3)n(-c3ccc(Cl)cc3Cl)n2)ccn1` [I-15, N-{4-[1-(2,4-dichlorophenyl)-5-(4H-1,2,4-triazol-3-yl)-1H-pyrazol-3-yl]pyridin-2-yl}acetamide], the inhibition at 1.11 µM was more than 99% and the IC50 was less than 100 nM.

`CC(=O)Nc1cc(-c2cc(-c3nnc[nH]3)n(-c3ccccc3Cl)n2)ccn1` [I-21, N-{4-[1-(2-chlorophenyl)-5-(1H-1,2,4-triazol-3-yl)-1H-pyrazol-3-yl]pyridin-2-yl}acetamide]: the inhibition at 1.11 µM turned out to be 96% and the IC50 fell in the range of 100 to 1000 nM.

Consider `CC(=O)Nc1cc(-c2cc(-c3nc[nH]n3)n(-c3ncccc3Cl)c2)c(C)cn1` [I-96], for which the inhibition at 1.11 µM worked out at 96% and the IC50 lay in the range of 100 to 1000 nM.

Regarding `CC(=O)Nc1cc(-c2cc(-c3ccccc3C)c(C(N)=O)n2C)ccn1` [I-104, 5-(2-acetamidopyridin-4-yl)-1-methyl-3-(2-methylphenyl)-1H-pyrrole-2-carboxamide], the inhibition at 1.11 µM came to 7% and the IC50 fell in the range of 1000 to 10000 nM.

In the case of `C=CCn1cc(-c2cc(NC(=O)C3CC3)ncc2C)cc1-c1nc[nH]n1` [I-88, N-{4-[1-allyl-5-(1H-1,2,4-triazol-3-yl)-1H-pyrrol-3-yl]-5-methylpyridin-2-yl}cyclopropanecarboxamide], the inhibition at 1.11 µM was 69% and the IC50 was less than 100 nM.

Consider `CC(=O)Nc1cc(-c2cc(C(N)=O)n(CC3CC3)c2)c(C)cn1` [I-92, 4-(2-acetamido-5-methylpyridin-4-yl)-1-(cyclopropylmethyl)-1H-pyrrole-2-carboxamide], for which the inhibition at 1.11 µM amounted to 68% and the IC50 was in the range of 100 to 1000 nM.

For `CC(=O)Nc1cc(-c2cc(-c3ccccc3C)c(C(N)=O)[nH]2)ccn1` [I-102, 5-(2-acetamidopyridin-4-yl)-3-(2-methylphenyl)-1H-pyrrole-2-carboxamide], the inhibition at 1.11 µM is 96% and the IC50 is 100 to 1000 nM.

For `Cc1cnc(NC(=O)C2CC2)cc1-c1cc(C(N)=O)n(-c2ccccc2Cl)c1` [I-99, 1-(2-chlorophenyl)-4-{2-[(cyclopropylcarbonyl)amino]-5-methylpyridin-4-yl}-1H-pyrrole-2-carboxamide], the inhibition at 1.11 µM came to 93% and the IC50 fell in the range of 100 to 1000 nM.

On to `CC(=O)Nc1cc(-c2cc(-c3nnc[nH]3)cn2CC2CC2)ccn1` [I-87, N-{4-[1-(cyclopropylmethyl)-4-(4H-1,2,4-triazol-3-yl)-1H-pyrrol-2-yl]pyridin-2-yl}acetamide], for which the inhibition at 1.11 µM is 93% and the IC50 lay in the range of 100 to 1000 nM.

For the compound `CC(=O)Nc1cc(-c2cc(-c3ccccc3C)c(-c3nc[nH]n3)n2C)ccn1` [I-103, N-{4-[1-methyl-4-(2-methylphenyl)-5-(1H-1,2,4-triazol-3-yl)-1H-pyrrol-2-yl]pyridin-2-yl}acetamide], the inhibition at 1.11 µM was 39% and the IC50 lay in the range of 1000 to 10000 nM.

As for `CC(=O)Nc1cc(-c2cc(-c3ccccc3C)c(-c3nnc[nH]3)[nH]2)ccn1` [I-101, N-{4-[4-(2-methylphenyl)-5-(4H-1,2,4-triazol-3-yl)-1H-pyrrol-2-yl]pyridin-2-yl}acetamide], the inhibition at 1.11 µM came out at 60% and the IC50 lay within 100 to 1000 nM.

For the compound `CC(=O)Nc1cc(-c2cc(C(N)=O)n(-c3ccccc3Cl)c2)c(C)cn1` [I-97, 4-(2-acetamido-5-methylpyridin-4-yl)-1-(2-chlorophenyl)-1H-pyrrole-2-carboxamide], the inhibition at 1.11 µM was 96% and the IC50 lay in the range of 100 to 1000 nM.

As for `CC(=O)Nc1cc(-c2cc(C(N)=O)c(-c3ccnc(NC(C)=O)c3)n2C)ccn1` [I-95, 2,5-bis(2-acetamidopyridin-4-yl)-1-methyl-1H-pyrrole-3-carboxamide], the inhibition at 1.11 µM came out at 18% and the half-maximal inhibitory concentration (IC50) was 1000 to 10000 nM.

As to `Cc1cnc(NC(=O)C2CC2)cc1-c1cc(-c2nc[nH]n2)n(-c2ccccc2Cl)c1` [I-98, N-{4-[1-(2-chlorophenyl)-5-(1H-1,2,4-triazol-3-yl)-1H-pyrrol-3-yl]-5-methylpyridin-2-yl}cyclopropanecarboxamide], the inhibition at 1.11 µM was more than 99% and the IC50 is less than 100 nM.

For the compound `CC(=O)Nc1cc(-c2cc(C(N)=O)n(-c3ccccc3Cl)n2)ccn1` [I-14, 3-(2-acetamidopyridin-4-y1)-1-(2-chlorophenyl)-1H-pyrazole-5-carboxamide], the inhibition at 1.11 µM worked out at 45% and the IC50 was in the range of 1000 to 10000 nM.

In the case of `CCCn1cc(-c2cc(NC(=O)C3CC3)ncc2C)cc1-c1nc[nH]n1` [I-94, N-{5-methyl-4-[1-propyl-5-(4H-1,2,4-triazol-3-yl)-1H-pyrrol-3-yl]pyridin-2-yl}cyclopropanecarboxamide], the inhibition at 1.11 µM was more than 99% and the IC50 is 100 to 1000 nM.

Consider `CCn1cc(-c2nnc[nH]2)cc1-c1ccnc(NC(C)=O)c1` [I-86, N-{4-[1-ethyl-4-(4H-1,2,4-triazol-3-yl)-1H-pyrrol-2-yl]pyridin-2-yl}acetamide], for which the inhibition at 1.11 µM is more than 99% and the IC50 is 100 to 1000 nM.

On to `CC(=O)Nc1cc(-c2cc(-c3nc[nH]n3)n(-c3ccccc3Cl)c2)c(C)cn1` [I-93, N-{4-[1-(2-chlorophenyl)-5-(1H-1,2,4-triazol-3-yl)-1H-pyrrol-3-yl]-5-methylpyridin-2-yl}acetamide], for which the inhibition at 1.11 µM was more than 99% and the IC50 is less than 100 nM.

Take `CC(=O)Nc1cc(-c2cc(C(N)=O)n(-c3ccc(N)cc3Cl)c2)c(C)cn1` [I-89, 4-(2-acetamido-5-methylpyridin-4-yl)-1-(4-amino-2-chlorophenyl)-1H-pyrrole-2-carboxamide]: the inhibition at 1.11 µM is more than 99% and the IC50 is less than 100 nM.

Turning to `CC(=O)Nc1cc(-c2cc(-c3ccccc3Cl)n(-c3nccs3)n2)ccn1` [I-3, N-[4-[5-(2-chlorophenyl)-1-(1,3-thiazol-2-yl)-1H-pyrazol-3-yl]pyridin-2-yl]acetamide], the inhibition at 1.11 µM was 6% and the IC50 lay within 1000 to 10000 nM.

For the compound `CCn1cc(C(N)=O)cc1-c1ccnc(NC(C)=O)c1` [I-100, 5-(2-acetamidopyridin-4-yl)-1-ethyl-1H-pyrrole-3-carboxamide], the inhibition at 1.11 µM came to 54% and the IC50 was 100 to 1000 nM.

In the case of `CC(=O)Nc1cc(-c2cc(C(N)=O)n(-c3ncccc3Cl)c2)c(C)cn1` [I-90, 4-(2-acetamido-5-methylpyridin-4-yl)-1-(3-chloropyridin-2-yl)-1H-pyrrole-2-carboxamide], the inhibition at 1.11 µM is 39% and the IC50 is 1000 to 10000 nM.

Consider `CC(=O)Nc1cc(-c2cc(-c3nnc[nH]3)n(CC3CC3)c2)c(C)cn1` [I-91, N-{4-[1-(cyclopropylmethyl)-5-(4H-1,2,4-triazol-3-yl)-1H-pyrrol-3-yl]-5-methylpyridin-2-yl}acetamide], for which the inhibition at 1.11 µM was more than 99% and the IC50 was less than 100 nM.
